From the supplement of paper PMC11451515

Tested on: P12-Ichikawa
Assay: cell viability relative to DMSO control; higher = less cytotoxic
Details: 48 h
Outline: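 Cells were incubated for 48 h at 37°C before CellTiter-Glo One luminescence was read. The cells were NOMO1 or SEM (500 cells/well) or P12-Ichikawa (1000 cells/well) leukemia cells, adapted for at least four passages in each medium and seeded in 1536-well plates (5 μl). Dosing used library compounds in DMSO applied by pin over 11 threefold points, 47 μM to 0.79 nM. Viability is the per-plate percentage of DMSO wells, with cell-free wells as background.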

[1] = HPLM + 10% dialyzed FBS, 0.000781 µM
[2] = HPLM + 10% dialyzed FBS, 0.00234 µM
[3] = HPLM + 10% dialyzed FBS, 0.00702 µM
[4] = HPLM + 10% dialyzed FBS, 0.0211 µM
[5] = HPLM + 10% dialyzed FBS, 0.0632 µM
[6] = HPLM + 10% dialyzed FBS, 0.19 µM
[7] = HPLM + 10% dialyzed FBS, 0.569 µM
[8] = HPLM + 10% dialyzed FBS, 1.71 µM
[9] = HPLM + 10% dialyzed FBS, 5.12 µM
[10] = HPLM + 10% dialyzed FBS, 15.4 µM
[11] = HPLM + 10% dialyzed FBS, 46.1 µM
[12] = RPMI 5 mM glucose + 10% dialyzed FBS, 0.000781 µM
[13] = RPMI 5 mM glucose + 10% dialyzed FBS, 0.00234 µM
[14] = RPMI 5 mM glucose + 10% dialyzed FBS, 0.00702 µM
[15] = RPMI 5 mM glucose + 10% dialyzed FBS, 0.0211 µM
[16] = RPMI 5 mM glucose + 10% dialyzed FBS, 0.0632 µM
[17] = RPMI 5 mM glucose + 10% dialyzed FBS, 0.19 µM
[18] = RPMI 5 mM glucose + 10% dialyzed FBS, 0.569 µM
[19] = RPMI 5 mM glucose + 10% dialyzed FBS, 1.71 µM
[20] = RPMI 5 mM glucose + 10% dialyzed FBS, 5.12 µM
[21] = RPMI 5 mM glucose + 10% dialyzed FBS, 15.4 µM
[22] = RPMI 5 mM glucose + 10% dialyzed FBS, 46.1 µM

Row | SMILES | cell viability [1] [%] | cell viability [2] [%] | cell viability [3] [%] | cell viability [4] [%] | cell viability [5] [%] | cell viability [6] [%] | cell viability [7] [%] | cell viability [8] [%] | cell viability [9] [%] | cell viability [10] [%] | cell viability [11] [%] | cell viability (RPMI 5 mM glucose + 10% FBS, 0.000781 µM) [%] | cell viability (RPMI 5 mM glucose + 10% FBS, 0.00234 µM) [%] | cell viability (RPMI 5 mM glucose + 10% FBS, 0.00702 µM) [%] | cell viability (RPMI 5 mM glucose + 10% FBS, 0.0211 µM) [%] | cell viability (RPMI 5 mM glucose + 10% FBS, 0.0632 µM) [%] | cell viability (RPMI 5 mM glucose + 10% FBS, 0.19 µM) [%] | cell viability (RPMI 5 mM glucose + 10% FBS, 0.569 µM) [%] | cell viability (RPMI 5 mM glucose + 10% FBS, 1.71 µM) [%] | cell viability (RPMI 5 mM glucose + 10% FBS, 5.12 µM) [%] | cell viability (RPMI 5 mM glucose + 10% FBS, 15.4 µM) [%] | cell viability (RPMI 5 mM glucose + 10% FBS, 46.1 µM) [%] | cell viability [12] [%] | cell viability [13] [%] | cell viability [14] [%] | cell viability [15] [%] | cell viability [16] [%] | cell viability [17] [%] | cell viability [18] [%] | cell viability [19] [%] | cell viability [20] [%] | cell viability [21] [%] | cell viability [22] [%]
1 | NC(=O)c1cccc(-c2cc(Nc3ccc(OC(F)(F)F)cc3)ncn2)c1 | 101 | 96.4 | 98.5 | 101 | 109 | 104 | 105 | 102 | 97 | 99.3 | 89.5 | 102 | 97.7 | 98 | 94.2 | 105 | 107 | 105 | 98.7 | 91.5 | 96.1 | 80.3 | 99.5 | 85.7 | 97.1 | 91.9 | 111 | 104 | 96.1 | 98.8 | 100 | 95.8 | 81.5
2 | CCCCCCNC(=O)N1\C=C(F)/C(=O)NC1=O | 122 | 124 | 123 | 127 | 121 | 129 | 126 | 124 | 113 | 107 | 89.3 |  |  |  |  |  |  |  |  |  |  |  | 108 | 118 | 122 | 122 | 127 | 117 | 129 | 121 | 116 | 91.8 | 81.8
